Reference: patent US4210639A, “5'-Deoxy-5'-(isobutylthio)-3-deazaadenosine, method of making same and its antiviral effect on Rous sarcoma virus and Gross murine leukemia virus” (The United States of America as represented by the …, priority 1978, dated 1980)
“Also recorded” adds a separate entry of the source. Where two headings read alike, the source gives them in different places.

Experiments:
[1] = biological target: T1, AdoHcy hydrolase (Bos taurus, UniProt Q3MHL4); assay: Inhibition of AdoHcy hydrolase from cow liver; assay type: biochemical; conditions: for IC50: read-out: I50
T1 construct: AdoHcy hydrolase from cow liver; from tissue; host or cells: cow liver
T1 sequence (Q3MHL4 2-432 limits assumed): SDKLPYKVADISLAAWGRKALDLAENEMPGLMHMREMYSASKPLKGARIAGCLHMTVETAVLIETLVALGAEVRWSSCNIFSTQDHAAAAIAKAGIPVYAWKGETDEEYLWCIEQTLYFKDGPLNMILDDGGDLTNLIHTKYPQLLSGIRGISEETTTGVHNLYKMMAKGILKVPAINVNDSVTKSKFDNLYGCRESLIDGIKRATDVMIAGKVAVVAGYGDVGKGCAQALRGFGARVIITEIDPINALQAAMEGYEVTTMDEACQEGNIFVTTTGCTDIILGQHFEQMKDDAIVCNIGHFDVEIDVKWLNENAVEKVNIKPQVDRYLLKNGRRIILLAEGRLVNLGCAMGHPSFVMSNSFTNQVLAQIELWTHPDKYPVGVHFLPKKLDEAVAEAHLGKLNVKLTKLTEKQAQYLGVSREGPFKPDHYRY

[2] = system: RSV-BH; assay: Focus formation (oncogenic transformation) by RSV-BH in chick embryo cells; assay type: cell-based; conditions: for inhibition at 100 µM / inhibition at 30 µM: Gallus gallus
Experimental: Additionally, the ability of these compounds to inhibit the oncogenic transformation of chick embryo cells induced by RSV-BH was examined.
*Compounds were added 18 h after infection and foci were counted 7 days

[3] = system: chick embryo cells; assay: Effects on host chick embryo cells; assay type: cell-based; conditions: 0.1 mM
[4] = system: oncogenic virus; assay: Oncogenic virus-induced malignant transformation / viral replication, general statements; assay type: cell-based
[5] = system: AdoHcy hydrolase; assay: Hydrolysis of the compound by AdoHcy hydrolase; assay type: biochemical
[6] = system: Gross MLV; assay: Replication of Gross MLV in mouse embryo cells (UV-XC plaque assay); assay type: cell-based, Swiss mouse
Experimental: (§1) Each point represents the mean number of UV-XC plaques per culture (triplicate assays)± the standarad deviation. The drug was dissolved in DMSO at the time of virus inoculation and was present throughout the incubation period. (B) Effect of treatment on the multiplication of host cells after 4 days exposure to drug. Each point represents the mean number of viable mouse embryo cells per culture ± the standard deviation. The initial number of cells plated was 3.5×10^5 cells.
(§2) The ability of 5'-deoxy-5'-(isobutylthio)-3-deazaadenosine to inhibit replication of Gross MLV in mouse embryo cells was tested. […] The selectivity ratio (i.e., the highest noncytotoxic concentration of drug over the lowest effective concentration of drug) was about 10.

[7] = system: mouse embryo cells; assay: Multiplication/cytotoxicity of mouse embryo host cells after 4 days exposure; assay type: cell-based, Swiss mouse; conditions: 30 to 100 μM
Experimental: as §1, §2

[8] = system: cells; assay: Tolerance by cells; assay type: cell-based
[9] = system: methyltransferases; conditions: AdoMet-utilizing methyltransferases; cited from earlier work
[10] = 0.03 mM, added 18 h after infection, counted 7 days later
[11] = 0.1 mM, added 18 h after infection, counted 7 days later
[12] = 168 h, read-out: Reduction of focus formation in RSV-BH infected cells
[13] = 0.1 mM, added 18 h after infection, counted 7 days later, read-out: % Inhibition of focus formation
[14] = AdoHcy hydrolase from cow liver
[15] = non-competitive inhibition of AdoHcy hydrolase

Structure (SMILES) | Inhibition of AdoHcy hydrolase (in words) [1] | Type of inhibition of AdoHcy hydrolase [1] | No. of Foci [2, 10] | No. of Foci [2, 11] | inhibition at 30 µM [2, 10] | inhibition at 100 µM [2, 13] | Effect on focus formation / RSV activity (in words) [2] | IC50 [1, 14] | also measured
Nc1nccc2c1ncn2[C@@H]1O[C@H](CO)[C@@H](O)[C@H]1O [3-Deazaadenosine, 4-amino-1-β-D-ribofuranosyl [4,5-c]pyridine] | most potent inhibitor of AdoHcy hydrolase | competitive inhibitor | 106 | 17 | 68% | 95% |  |  | IC50 ([1]; AdoHcy hydrolase): 8 µM; Ki ([1]; competitive inhibition of AdoHcy hydrolase): 3 µM; Potency relative to 5'-deoxy-5'-S-isobutyl-adenosine as inhibitor of AdoHcy hydrolase ([1]; nearly 100-fold more potent than 5'-deoxy-5'-S-isobutyl-adenosine): ~100 fold; Effect on oncogenic transformation induced by Rous sarcoma virus and on its infectivity [2]: powerful, although reversible, effect; Sensitivity to drug by phase of virus replication [2]: maximal during the phase of virus replication which required the synthesis of viral mRNA and protein; inhibition at 100 µM [2, 12]: 95%; Effects on the host cells [3]: without noticeable effects on the host cells; Ability to inhibit viral replication, compared between the two compounds [4]: almost equal
Nc1nccc2c1ncn2[C@@H]1O[C@H](CSCC[C@H](N)C(=O)O)[C@@H](O)[C@H]1O [3-Deazaadenosylhomocysteine] |  |  | 330 | 276 | 0% | 16% | Neither 3-deaza-AdoHcy nor 9-[5'-deoxy-5'-(methylthio)- β-D-arabinofuranosyl]adenine had any significant effect on focus formation |  | 
CC(C)CSC[C@H]1O[C@@H](n2cnc3c(N)nccc32)[C@H](O)[C@@H]1O [5'-Deoxy-5'-(isobutylthio)-3-deazaadenosine] | potent inhibitors of AdoHcy hydrolase; also recorded: good activity | non-competitive inhibitor | 93 | 3 | 72% | 99% | good antiviral; also recorded: just as effective as 3-deazaadenosine itself; also recorded: has shown activity | 280 µM | Type of inhibition of AdoHcy hydrolase ([1]; listed as 5'-deoxy-(isobutylthio)-3-deazaadenosine): non-competitive; Ki relative to the Ki of 3-deazaadenosine ([1]; times higher than Ki of 3-deazaadenosine): about 100 times; Hydrolysis by AdoHcy hydrolase [5]: not to be hydrolyzed; inhibition at 100 µM [2, 12]: 95%; Effects on the host cells [3]: without noticeable effects on the host cells; inhibition at 3 µM ([6]; 3 μM, Gross MLV in mouse embryo cells, read-out: Inhibition of plaque formation in the indicator XC cells): 85%; Inhibition of virus replication (in words) ([6]; 30 to 100 μM, Gross MLV in mouse embryo cells): Complete inhibition; Selectivity ratio (highest noncytotoxic concentration over lowest effective concentration) ([6]; Gross MLV in mouse embryo cells): about 10; Antiviral activity against Gross murine leukemia virus (in words) ([6]; mouse embryo cells): good antiviral; also recorded: has shown activity; Cytotoxicity [7]: cytotoxicity was observed; Ability to inhibit viral replication, compared between the two compounds [4]: almost equal; Reversal of malignant transformation induced by oncogenic virus [4]: will reverse the malignant transformation; Tolerance by cells [8]: well tolerated by cells
CC(C)CSC[C@H]1O[C@@H](n2cnc3c(N)ncnc32)[C@H](O)[C@@H]1O [5'-deoxy-5'-S-isobutyladenosine] | potent inhibitors of AdoHcy hydrolase |  |  |  |  |  |  | > 1000 µM | Tolerance by cells [8]: well tolerated by cells
CSC[C@H]1O[C@@H](n2cnc3c(N)ncnc32)[C@@H](O)[C@@H]1O [9-[5'-deoxy-5'-(methylthio)-β-D-arabinofuranosyl]-adenine] |  | non-competitive | 274 | 298 | 17% | 9% | Neither 3-deaza-AdoHcy nor 9-[5'-deoxy-5'-(methylthio)- β-D-arabinofuranosyl]adenine had any significant effect on focus formation | 430 µM | Ki [1, 15]: 500 µM
Nc1ncnc2c1ncn2[C@@H]1O[C@H](CSCC[C@H](N)C(=O)O)[C@@H](O)[C@H]1O [Adenosylhomocysteine, S-adenosyl-L-homocysteine] |  |  |  |  |  |  |  |  | Inhibition of methyltransferases [9]: inhibit competitively most of the methyltransferases; also recorded: competitive inhibitor
Nc1ncnc2c1ncn2[C@@H]1O[C@H](CNCCC(N)C(=O)O)[C@@H](O)[C@H]1O (stereo partly drawn) [Nγ-adenosyl-α,γ-diamino-butyric acid] |  | non-competitive |  |  |  |  |  | 140 µM | Ki [1, 15]: 300 µM
